Measured values published in ChEMBL document CHEMBL4219030, “Progress in the discovery of small molecule modulators of the Cys-loop superfamily receptors” (Bioorg Med Chem Lett, 2017).

Legend:
[1] = target: T1, Gamma-aminobutyric acid receptor subunit alpha-1/beta-3/gamma-2 (Mus musculus, UniProt P22723+P62812+P63080); assay: Positive allosteric modulation of C57BL/6 mouse GABAA receptor alpha1beta3gamma2 assessed as increase in GABA-induced current response at -60 mV holding potential by whole cell patch-clamp method relative to GABA; format: protein-complex assay
[2] = target: T2, Glycine receptor subunit alpha-1 (Homo sapiens, UniProt P23415); assay: Positive allosteric modulation of human glycine alpha1 receptor expressed in HEK293T cells assessed as glycine-induced increase incurrent response after 18 to 24 hrs by membrane potential blue dye based FLIPR assay; format: cell-based
T2 sequence (P23415 whole entry): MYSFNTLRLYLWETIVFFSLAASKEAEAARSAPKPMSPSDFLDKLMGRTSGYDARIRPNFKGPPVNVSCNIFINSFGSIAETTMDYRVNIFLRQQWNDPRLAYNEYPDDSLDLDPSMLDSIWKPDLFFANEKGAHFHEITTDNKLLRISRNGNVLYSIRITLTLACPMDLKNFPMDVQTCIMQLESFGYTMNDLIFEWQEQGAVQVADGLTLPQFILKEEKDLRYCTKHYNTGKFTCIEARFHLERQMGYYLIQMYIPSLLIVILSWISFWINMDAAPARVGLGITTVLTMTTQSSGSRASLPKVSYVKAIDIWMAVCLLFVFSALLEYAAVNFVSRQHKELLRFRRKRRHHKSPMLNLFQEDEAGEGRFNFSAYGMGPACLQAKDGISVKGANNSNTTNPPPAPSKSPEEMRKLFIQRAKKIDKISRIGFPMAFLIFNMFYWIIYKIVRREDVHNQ

[3] = target: T1, Gamma-aminobutyric acid receptor subunit alpha-1/beta-3/gamma-2; assay: Inhibition of C57BL/6 mouse GABAA receptor alpha1beta3gamma2; format: protein-complex assay
[4] = target: T3, Neuronal acetylcholine receptor; alpha4/beta2 (Homo sapiens, UniProt P17787+P43681); assay: Inhibition of alpha4beta2 nAChR (unknown origin); format: protein-complex assay
[5] = target: T4, Glycine receptor alpha-3/beta (Homo sapiens, UniProt O75311+P48167); assay: Positive allosteric modulation of human glycine alpha3beta receptor expressed in HEK293T cells assessed as potentiation of glycine-induced increase in current response after 18 to 24 hrs by membrane potential blue dye based FLIPR assay relative to glycine; format: cell-based
[6] = target: Glycine receptor (alpha-1/beta) (Homo sapiens, UniProt P23415+P48167); assay: Positive allosteric modulation of human glycine alpha1beta receptor expressed in HEK293T cells assessed as glycine-induced increase in current response after 18 to 24 hrs by membrane potential blue dye based FLIPR assay; format: cell-based
[7] = target: T5, 5-hydroxytryptamine receptor 3A (Homo sapiens, UniProt P46098); assay: Agonist activity at 5-HT3 receptor (unknown origin)
T5 sequence (P46098 whole entry): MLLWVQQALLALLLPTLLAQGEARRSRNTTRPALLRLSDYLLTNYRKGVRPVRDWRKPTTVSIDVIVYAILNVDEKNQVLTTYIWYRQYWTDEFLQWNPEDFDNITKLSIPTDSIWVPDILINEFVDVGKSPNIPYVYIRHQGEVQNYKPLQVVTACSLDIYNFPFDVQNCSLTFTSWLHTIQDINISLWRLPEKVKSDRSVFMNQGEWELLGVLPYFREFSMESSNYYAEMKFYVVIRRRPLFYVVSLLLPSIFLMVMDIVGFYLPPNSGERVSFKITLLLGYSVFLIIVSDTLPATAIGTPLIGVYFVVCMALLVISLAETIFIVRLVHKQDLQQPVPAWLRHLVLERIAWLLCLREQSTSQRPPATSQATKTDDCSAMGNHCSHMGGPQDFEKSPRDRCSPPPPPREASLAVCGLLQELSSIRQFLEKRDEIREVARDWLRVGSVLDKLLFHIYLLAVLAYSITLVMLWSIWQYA

[8] = target: T5, 5-hydroxytryptamine receptor 3A; assay: Inhibition of 5-HT3 receptor (unknown origin)
[9] = target: T4, Glycine receptor alpha-3/beta; assay: Positive allosteric modulation of human glycine alpha3beta receptor expressed in HEK293T cells assessed as glycine-induced increase in current response after 18 to 24 hrs by membrane potential blue dye based FLIPR assay; format: cell-based
[10] = target: Gamma-aminobutyric acid receptor subunit alpha-1/beta-2/gamma-2 (Mus musculus, UniProt P22723+P62812+P63137); assay: Positive allosteric modulation of C57BL/6 mouse GABAA receptor alpha1beta2gamma2 assessed as increase in GABA-induced current response at -60 mV holding potential by whole cell patch-clamp method relative to GABA; format: protein-complex assay
[11] = target: T3, Neuronal acetylcholine receptor; alpha4/beta2; assay: Agonist activity at alpha4beta2 nAChR (unknown origin); format: protein-complex assay

T1 sequence (P22723 whole entry): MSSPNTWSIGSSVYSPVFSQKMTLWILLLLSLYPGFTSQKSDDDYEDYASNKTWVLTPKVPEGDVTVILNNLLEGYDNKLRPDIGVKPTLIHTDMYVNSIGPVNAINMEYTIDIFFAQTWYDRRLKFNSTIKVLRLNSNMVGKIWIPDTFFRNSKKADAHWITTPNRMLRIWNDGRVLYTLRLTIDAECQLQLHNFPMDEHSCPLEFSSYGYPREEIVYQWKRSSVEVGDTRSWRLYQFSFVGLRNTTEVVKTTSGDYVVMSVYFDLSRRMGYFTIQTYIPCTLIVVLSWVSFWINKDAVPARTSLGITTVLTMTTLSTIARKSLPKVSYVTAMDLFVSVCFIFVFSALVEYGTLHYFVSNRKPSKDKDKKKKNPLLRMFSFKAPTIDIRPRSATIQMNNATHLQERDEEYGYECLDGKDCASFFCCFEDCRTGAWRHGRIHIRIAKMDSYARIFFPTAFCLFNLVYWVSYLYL
T1 sequence (P62812 whole entry): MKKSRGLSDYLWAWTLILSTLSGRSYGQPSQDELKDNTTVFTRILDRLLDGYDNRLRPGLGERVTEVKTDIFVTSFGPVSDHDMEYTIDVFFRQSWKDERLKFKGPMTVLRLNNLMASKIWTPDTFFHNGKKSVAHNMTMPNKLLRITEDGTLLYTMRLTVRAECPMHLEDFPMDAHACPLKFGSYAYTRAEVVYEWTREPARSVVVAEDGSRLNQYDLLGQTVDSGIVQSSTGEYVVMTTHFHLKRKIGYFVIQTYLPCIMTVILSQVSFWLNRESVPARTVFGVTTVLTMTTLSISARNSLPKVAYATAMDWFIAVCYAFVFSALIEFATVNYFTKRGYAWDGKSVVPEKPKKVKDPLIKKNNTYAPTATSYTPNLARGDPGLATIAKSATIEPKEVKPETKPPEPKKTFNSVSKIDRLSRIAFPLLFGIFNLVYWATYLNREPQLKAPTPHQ
T1 sequence (P63080 whole entry): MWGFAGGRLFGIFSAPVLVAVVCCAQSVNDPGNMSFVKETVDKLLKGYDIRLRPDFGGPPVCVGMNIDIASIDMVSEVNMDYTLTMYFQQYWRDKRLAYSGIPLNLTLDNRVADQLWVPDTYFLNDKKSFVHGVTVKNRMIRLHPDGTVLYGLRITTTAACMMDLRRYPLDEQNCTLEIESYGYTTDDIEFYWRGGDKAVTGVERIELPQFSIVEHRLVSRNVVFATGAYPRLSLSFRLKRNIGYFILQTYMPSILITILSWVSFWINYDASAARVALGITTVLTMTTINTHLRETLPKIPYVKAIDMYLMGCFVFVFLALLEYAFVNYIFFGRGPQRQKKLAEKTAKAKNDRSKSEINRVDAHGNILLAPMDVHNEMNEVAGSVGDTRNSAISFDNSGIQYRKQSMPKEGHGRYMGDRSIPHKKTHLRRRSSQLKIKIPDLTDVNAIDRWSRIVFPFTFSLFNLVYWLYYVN
T3 sequence (P17787 whole entry): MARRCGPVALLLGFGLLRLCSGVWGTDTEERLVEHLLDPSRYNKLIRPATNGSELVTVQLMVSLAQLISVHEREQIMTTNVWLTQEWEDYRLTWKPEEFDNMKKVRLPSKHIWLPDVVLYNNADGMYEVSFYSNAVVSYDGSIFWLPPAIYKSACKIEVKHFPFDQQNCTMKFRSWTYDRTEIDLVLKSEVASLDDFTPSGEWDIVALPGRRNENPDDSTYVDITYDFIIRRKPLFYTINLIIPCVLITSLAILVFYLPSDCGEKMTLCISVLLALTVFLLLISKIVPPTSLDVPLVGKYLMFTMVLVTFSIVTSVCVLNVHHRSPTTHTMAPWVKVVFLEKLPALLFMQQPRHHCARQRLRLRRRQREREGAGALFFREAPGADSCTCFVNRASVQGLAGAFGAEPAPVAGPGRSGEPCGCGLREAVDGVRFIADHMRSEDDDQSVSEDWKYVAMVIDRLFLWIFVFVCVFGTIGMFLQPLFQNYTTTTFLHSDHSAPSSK
T3 sequence (P43681 whole entry): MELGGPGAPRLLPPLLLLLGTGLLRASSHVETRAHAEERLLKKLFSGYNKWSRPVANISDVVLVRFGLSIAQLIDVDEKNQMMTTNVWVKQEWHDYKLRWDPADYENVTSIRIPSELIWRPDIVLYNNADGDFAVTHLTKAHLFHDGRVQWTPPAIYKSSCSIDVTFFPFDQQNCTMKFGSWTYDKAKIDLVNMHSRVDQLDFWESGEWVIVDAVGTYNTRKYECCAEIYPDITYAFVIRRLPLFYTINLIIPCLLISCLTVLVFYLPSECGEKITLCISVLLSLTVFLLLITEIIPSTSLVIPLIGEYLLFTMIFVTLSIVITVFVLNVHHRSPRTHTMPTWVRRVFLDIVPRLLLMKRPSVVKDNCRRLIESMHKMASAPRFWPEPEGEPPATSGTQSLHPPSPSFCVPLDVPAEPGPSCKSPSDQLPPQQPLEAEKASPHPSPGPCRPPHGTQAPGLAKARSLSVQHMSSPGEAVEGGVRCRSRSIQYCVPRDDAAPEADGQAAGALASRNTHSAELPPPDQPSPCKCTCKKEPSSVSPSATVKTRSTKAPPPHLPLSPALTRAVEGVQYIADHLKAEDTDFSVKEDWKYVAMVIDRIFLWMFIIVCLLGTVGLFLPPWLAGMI
Chain of Gamma-aminobutyric acid receptor subunit alpha-1/beta-2/gamma-2 (P22723 whole entry): as the sequence (P22723 whole entry) above
Chain of Gamma-aminobutyric acid receptor subunit alpha-1/beta-2/gamma-2 (P62812 whole entry): as the sequence (P62812 whole entry) above
Chain of Gamma-aminobutyric acid receptor subunit alpha-1/beta-2/gamma-2 (P63137 whole entry): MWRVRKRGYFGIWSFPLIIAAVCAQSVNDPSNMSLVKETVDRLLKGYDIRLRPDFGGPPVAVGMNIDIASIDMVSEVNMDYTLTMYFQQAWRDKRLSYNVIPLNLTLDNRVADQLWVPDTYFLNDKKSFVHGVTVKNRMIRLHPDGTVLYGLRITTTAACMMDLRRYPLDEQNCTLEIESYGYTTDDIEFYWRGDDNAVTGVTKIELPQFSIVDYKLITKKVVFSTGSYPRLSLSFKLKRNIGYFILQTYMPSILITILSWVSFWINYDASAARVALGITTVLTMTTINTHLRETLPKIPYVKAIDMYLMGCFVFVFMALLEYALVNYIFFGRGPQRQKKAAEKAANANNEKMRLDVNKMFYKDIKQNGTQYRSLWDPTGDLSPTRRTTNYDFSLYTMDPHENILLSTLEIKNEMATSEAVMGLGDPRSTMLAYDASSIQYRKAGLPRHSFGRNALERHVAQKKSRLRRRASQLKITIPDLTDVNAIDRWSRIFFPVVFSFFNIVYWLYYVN
T4 sequence (O75311 whole entry): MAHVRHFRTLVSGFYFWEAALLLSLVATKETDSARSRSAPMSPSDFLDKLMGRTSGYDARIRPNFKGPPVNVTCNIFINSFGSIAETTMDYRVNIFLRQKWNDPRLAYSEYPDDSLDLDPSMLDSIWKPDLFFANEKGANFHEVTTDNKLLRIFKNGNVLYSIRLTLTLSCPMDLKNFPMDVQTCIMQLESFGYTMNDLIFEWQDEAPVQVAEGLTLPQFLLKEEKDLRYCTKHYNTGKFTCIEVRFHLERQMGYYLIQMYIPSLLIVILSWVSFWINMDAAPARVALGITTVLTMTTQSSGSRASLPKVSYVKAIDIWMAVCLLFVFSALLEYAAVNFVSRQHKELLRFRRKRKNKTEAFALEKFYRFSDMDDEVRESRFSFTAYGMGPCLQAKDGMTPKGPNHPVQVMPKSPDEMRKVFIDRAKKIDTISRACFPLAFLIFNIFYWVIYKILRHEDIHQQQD
T4 sequence (P48167 whole entry): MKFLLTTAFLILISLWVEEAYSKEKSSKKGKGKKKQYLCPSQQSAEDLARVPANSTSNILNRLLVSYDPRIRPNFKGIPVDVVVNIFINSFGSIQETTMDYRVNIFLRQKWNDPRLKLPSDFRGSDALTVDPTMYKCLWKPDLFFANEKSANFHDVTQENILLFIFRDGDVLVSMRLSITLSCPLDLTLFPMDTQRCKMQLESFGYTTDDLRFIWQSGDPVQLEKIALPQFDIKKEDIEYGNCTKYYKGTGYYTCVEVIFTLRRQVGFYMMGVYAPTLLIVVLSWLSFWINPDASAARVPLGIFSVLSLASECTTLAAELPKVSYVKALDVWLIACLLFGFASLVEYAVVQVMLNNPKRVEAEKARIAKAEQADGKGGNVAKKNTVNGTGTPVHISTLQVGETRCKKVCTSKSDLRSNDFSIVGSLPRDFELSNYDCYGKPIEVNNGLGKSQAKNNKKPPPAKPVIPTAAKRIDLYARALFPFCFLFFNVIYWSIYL
Chain of Glycine receptor (alpha-1/beta) (P48167 whole entry, one chain of several): as the sequence (P48167 whole entry) above

## C[C@H]1[C@H]2C(=O)N(C)c3ccncc3[C@H]2CN1S(=O)(=O)c1ccc2c(c1)OCO2
[1]
  EC50: > 30 µM
[2]
  EC50: 0.032 µM
[3]
  IC50: > 30 µM
[4]
  IC50: > 25 µM
[5]
  fold change (FC): 11
[6]
  EC50: 0.016 µM
[7]
  EC50: > 25 µM
[8]
  IC50: > 30 µM
[9]
  EC50: 0.066 µM
[10]
  EC50: > 50 µM
[11]
  EC50: > 25 µM
